In patent US20220071947A1, “PHARMACEUTICAL APPLICATION OF DIMYRICETIN-BASED DISELENIDE” (Shanghai Spark Pharmaceutical Co., Ltd., priority 2020, published 2022):
Converted amounts (≈) assume the structure as drawn. Read-outs that look alike come from different tables or passages of the source.

Assays:
[1] = tested on: MGC80-3(MGC-803) human gastric cancer cells; assay: CCK-8 in vitro anti-tumor screening, human gastric cancer cells; assay type: cell-based; conditions: 24 h
Experimental: (§1) In vitro screening of the efficacy of dimyricetin-based diselenide on 7 different human tumor cells (HEP3B2.1.7, NCI-H460, CALU-3, SW480, SIHA, PC-3, MGC80-3) was performed. Using the CCK-8 detection method, 10 drug concentrations was designed, and each concentration was arranged in 3 re-holes. […], 24 h, 48 h, and 72 h, was selected according to dynamic microscopy. The positive drug was cisplatin. Cisplatin concentration gradient designed: 0 (i.e., the solvent control group), 1 μM, 5 μM, 10 μM, 20 μM, 40 μM, 60 μM, 80 μM, 100 μM, 135 μM. Dimyricetin-based diselenide drug concentration gradient designed: 0 (i.e., solvent control group), 1 μg/ml, 5 μg/ml, 25 μg/ml, 50 μg/ml, 75 μg/ml, 100 μg/ml, 125 μg/ml, 150 μg/ml, 200 μg/ml.
(§2) Step 1. Cell culture. […]
(§3) Step 3. […] Step 3-4, measuring the absorbance value: a microplate reader was used to measure the 450 nm absorbance value, and the inhibitory rate of the drug on the cells was calculated according to the formula. […]
(§4) Experimental group: the absorbance value of the cells and CCK-8 solution in the experimental group
(§5) Negative control: the absorbance value of control cells and CCK-8 solution
(§6) Blank control: absorbance value of medium and CCK-8 solution […]

[2] = tested on: HEP3B2.1.7 human liver cancer cells; assay: CCK-8 in vitro anti-tumor screening, human liver cancer cells; assay type: cell-based; conditions: HEP3B cells
Experimental: as §1, §2, §3, §4, §5, §6

[3] = tested on: SW480 primary colorectal cancer cells; assay: CCK-8 in vitro anti-tumor screening, primary colorectal cancer cells; assay type: cell-based, human
Experimental: as §1, §2, §3, §4, §5, §6

[4] = tested on: Siha human cervical squamous cell carcinoma cells; assay: CCK-8 in vitro anti-tumor screening, human cervical squamous cell carcinoma cells; assay type: cell-based
Experimental: as §1, §2, §3, §4, §5, §6

[5] = tested on: NCI-H460 human lung cancer cells (large cell lung cancer); assay: CCK-8 in vitro anti-tumor screening, human lung cancer cells (large cell lung cancer); assay type: cell-based
Experimental: as §1, §2, §3, §4, §5, §6

[6] = tested on: PC-3 human prostate cancer cells; assay: CCK-8 in vitro anti-tumor screening, human prostate cancer cells; assay type: cell-based; conditions: pc-3 cells
Experimental: as §1, §2, §3, §4, §5, §6

[7] = tested on: Calu-3 human lung adenocarcinoma cells (pleural effusion); assay: CCK-8 in vitro anti-tumor screening, human lung adenocarcinoma cells (pleural effusion); assay type: cell-based; conditions: calu-3 cells, 24 h
Experimental: as §1, §2, §3, §4, §5, §6

2019-nCoV-M^pro protease = 2019-nCoV-M^pro protease (Severe acute respiratory syndrome coronavirus 2, UniProt P0DTD1); assay: M^pro protease activity inhibition, fluorescence resonance energy transfer method; assay type: biochemical; conditions: 30 nM protease, 20 μM substrate, 10 min preincubation at 30° C.
From the text: This example was the detection of M^pro protease activity inhibition of the targeted 2019-nCoV virus.
The mechanism is: after the new coronavirus invades the cell, it will use the host cell to synthesize two ultra-long replicase polypeptides (pp1a and pp1ab) necessary for self-replication. The replicase polypeptide needs to be further cut into multiple proteins (such as RdRp, helicase, etc.), and then assembled into the replication and transcription machinery required for the virus to initiate the replication of its own genetic material. M^pro has at least 11 cleavage sites on the replicase polypeptide. […]
The fluorescence resonance energy transfer method was used to evaluate the inhibitory activity of dimyricetin-based diselenide on 2019-nCoV-M^pro protease.
Specific detection method: the volume of the entire enzymatic reaction system is 120 μL, the final concentration of protease is 30 nM, and the final concentration of substrate is 20 μM. […] The substrate was added and quickly placed in the microplate reader for reading. […] The test time is 10 min, and the fluorescence value is read every 30 seconds. The final result is the first 2 minutes reading to fit the reaction rate, and compared with the control group (DMSO) to calculate the inhibition rate.

N.N.[Cl][Pt][Cl] [Cisplatin, cisplatin, reference compound]
IC50 ([1]; MGC803 cells): 23.2 µM | IC50 ([2]; 48 h): 8.83 µM | IC50 ([3]; 48 h): 46.7 µM | IC50 ([4]; 48 h): 65.5 µM | IC50 ([5]; 48 h): 47.4 µM | IC50 ([6]; 48 h): 45.7 µM

O=c1c(O)c(-c2cc(O)c(O)c(O)c2)oc2c([Se][Se]c3c(O)cc(O)c4c(=O)c(O)c(-c5cc(O)c(O)c(O)c5)oc34)c(O)cc(O)c12 [Dimyricetin-based diselenide, 8,8′-diselanediylbis(3,5,7-trihydroxy-2-(3,4,5-trihydroxyphenyl)-4H-1-benzopyran-4-one)]
IC50 ([1]; Homo sapiens, MGC-803, MGC803 cells): 9.08 µg/mL | IC50 ([2]; Homo sapiens, 24 h): 25.2 µg/mL | IC50 ([3]; Homo sapiens, 24 h): 12.4 µg/mL | IC50 ([4]; Homo sapiens, 24 h): 19.1 µg/mL | IC50 ([5]; Homo sapiens, NCI-H460, 24 h): 27.9 µg/mL | IC50 ([6]; Homo sapiens, 24 h): 7.72 µg/mL | IC50 [7]: 22.9 µg/mL (≈ 29 µM) | IC50 (2019-nCoV-M^pro protease; read-out: IC50): 0.807 ± 0.083 µM | IC50 (2019-nCoV-M^pro protease; read-out: IC50 (μg/ml) (converted)): 0.806 µM
